Laboratory results from patent US11884676B2, “Substituted pyrimido[1,2-b]pyridazines as positive allosteric modulators of the muscarinic acetylcholine receptor M4” (Vanderbilt University, priority 2020, dated 2024).
pEC50: −log10 of the molar value.

Target: T1, Human M4 (Homo sapiens, UniProt P08173)
T1 construct: expressed in transfected cells
T1 sequence (P08173 1-479): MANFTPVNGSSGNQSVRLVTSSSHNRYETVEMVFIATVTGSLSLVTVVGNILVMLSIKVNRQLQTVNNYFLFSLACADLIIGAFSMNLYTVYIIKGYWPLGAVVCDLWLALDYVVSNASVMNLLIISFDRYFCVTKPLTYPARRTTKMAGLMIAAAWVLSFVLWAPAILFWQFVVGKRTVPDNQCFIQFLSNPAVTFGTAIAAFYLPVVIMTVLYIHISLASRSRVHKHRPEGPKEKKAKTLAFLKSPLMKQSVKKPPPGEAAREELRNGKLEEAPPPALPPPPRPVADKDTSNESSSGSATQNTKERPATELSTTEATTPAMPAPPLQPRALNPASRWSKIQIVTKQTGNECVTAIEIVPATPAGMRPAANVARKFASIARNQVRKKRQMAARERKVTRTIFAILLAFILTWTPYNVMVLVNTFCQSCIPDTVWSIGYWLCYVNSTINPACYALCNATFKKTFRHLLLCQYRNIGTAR
Test: mAChR M4 cell-based functional assay (calcium flux, PAM mode)
Conditions: hM4-Gqi5 CHO-K1 cells; for Emax at 30 µM: CHO-K1, % ACh maximum at 30 μM; for pEC50: concentration-dependent increase in the EC20 acetylcholine response
Summary of the method: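 CHO-K1 cells stably co-expressing human M4 and chimeric Gqi5, Fluo-4 loaded; compound added first (11-point, 1:3 CRC), then EC20 acetylcholine at 144 s and EC80 at 230 s. PAM activity read on FDSS as concentration-dependent increase of EC20 ACh calcium response; EC50 and Emax from four-parameter logistic fit.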

Compound	Emax at 30 µM [%]	pEC50
CCCc1ccc(OC2CCN(c3nn4c(=O)ccnc4cc3C)CC2)cc1 [Compound 91, 8-methyl-7-(4-(4-propylphenoxy)piperidin-1-yl)-4H-pyrimido[1,2-b]pyridazin-4-one]	70	5.97
Cc1ccc(OC2CCN(c3nn4c(=O)cc(C)nc4cc3C)CC2)cn1 [Compound 52, 2,8-dimethyl-7-(4-((6-methylpyridin-3-yl)oxy)piperidin-1-yl)-4H-pyrimido[1,2-b]pyridazin-4-one]	84	6.77
CCc1ccc(OC2CCN(c3nn4c(=O)ccnc4cc3C)CC2)cc1 [Compound 89, 7-(4-(4-ethylphenoxy)piperidin-1-yl)-8-methyl-4H-pyrimido[1,2-b]pyridazin-4-one]	76	6.30
Cc1cc(=O)n2nc(N3CCC(Oc4ccc5c(c4)C(=O)N(C)CC5)CC3)c(C)cc2n1 [Compound 73, 2,8-dimethyl-7-(4-((2-methyl-1-oxo-1,2,3,4-tetrahydroisoquinolin-7-yl)oxy)piperidin-1-yl)-4H-pyrimido[1,2-b]pyridazin-4-one]	85	5.58
CNc1c(C)c(N2CCC(Oc3ccc4c(c3)OCCO4)CC2)nn2c(=O)ccnc12 [Compound 123, 7-(4-((2,3-dihydrobenzo[b][1,4]dioxin-6-yl)oxy)piperidin-1-yl)-8-methyl-9-(methylamino)-4H-pyrimido[1,2-b]pyridazin-4-one]	89	6.25
[2H]C1(Oc2ccc3c(c2)OC([2H])([2H])C([2H])([2H])O3)CCN(c2nn3c(=O)c(F)c(C)nc3cc2C)CC1 [Compound 46, 7-(4-((2,3-dihydrobenzo[b][1,4]dioxin-6-yl-2,2,3,3-d4)oxy)piperidin-1-yl-4-d)-3-fluoro-2,8-dimethyl-4H-pyrimido[1,2-b]pyridazin-4-one]	81	7.66
Cc1cc2nccc(=O)n2nc1N1CCC(Oc2ccc(F)cc2)CC1 [Compound 25, 7-(4-(4-fluorophenoxy)piperidin-1-yl)-8-methyl-4H-pyrimido[1,2-b]pyridazin-4-one]	90	6.53
Cc1cc2ncc(Cl)c(=O)n2nc1N1CCC(Oc2ccc3c(c2)OCCO3)CC1 [Compound 31, 3-chloro-7-(4-((2,3-dihydrobenzo[b][1,4]dioxin-6-yl)oxy)piperidin-1-yl)-8-methyl-4H-pyrimido[1,2-b]pyridazin-4-one]	82	7.49
Cc1c(N2CCC(Oc3ccc4c(c3)OCCO4)CC2)nn2c(=O)ccnc2c1C1CC1 [Compound 20, 9-Cyclopropyl-7-(4-((2,3-dihydrobenzo[b][1,4]dioxin-6-yl-2,2,3,3-d4)oxy)piperidin-1-yl)-8-methyl-4H-pyrimido[1,2-b]pyridazin-4-one]	81	6.76
Cc1ccc(OC2CCN(c3nn4c(=O)ccnc4cc3C)CC2)cc1F [Compound 88, 7-(4-(3-fluoro-4-methylphenoxy)piperidin-1-yl)-8-methyl-4H-pyrimido[1,2-b]pyridazin-4-one]	77	6.42
[2H]C1([2H])Oc2ccc(O[C@H]3CCN(c4nn5c(=O)cc(COC)nc5c(C)c4C)[C@H](C)C3)cc2OC1([2H])[2H] [Compound 133, 7-((2R,4S)-4-((2,3-dihydrobenzo[b][1,4]dioxin-6-yl-2,2,3,3-d4)oxy)-2-methylpiperidin-1-yl)-2-(methoxymethyl)-8,9-dimethyl-4H-pyrimido[1,2-b]pyridazin-4-one]	105	7.02
COCc1cc(=O)n2nc(N3CCC(Oc4ccc5c(c4)OCCO5)CC3)c(C)c(C)c2n1 [Compound 13, 7-(4-((2,3-Dihydrobenzo[b][1,4]dioxin-6-yl)oxy)piperidin-1-yl)-2-(methoxymethyl)-8,9-dimethyl-4H-pyrimido[1,2-b]pyridazin-4-one]	95	7.66
COCc1ncc(OC2CCN(c3nn4c(=O)ccnc4cc3C)CC2)cc1C [Compound 93, 7-(4-((6-(methoxymethyl)-5-methylpyridin-3-yl)oxy)piperidin-1-yl)-8-methyl-4H-pyrimido[1,2-b]pyridazin-4-one]	70	< 5.00
Cc1cc2nccc(=O)n2nc1N1CC[C@@H](Oc2ccc3c(c2)OCCO3)[C@H](F)C1 [Compound 32, 7-((3R,4R)-4-((2,3-dihydrobenzo[b][1,4]dioxin-6-yl)oxy)-3-fluoropiperidin-1-yl)-8-methyl-4H-pyrimido[1,2-b]pyridazin-4-one]	81	6.83
[2H]C1([2H])Oc2ccc(O[C@H]3CCN(c4nn5c(=O)ccnc5cc4C)[C@H](C)C3)cc2OC1([2H])[2H] [Compound 129, 7-((2R,4S)-4-((2,3-Dihydrobenzo[b][1,4]dioxin-6-yl-2,2,3,3-d4)oxy)-2-methylpiperidin-1-yl)-8-methyl-4H-pyrimido[1,2-b]pyridazin-4-one]	120	7.09
Cc1cc2nccc(=O)n2nc1N1CCC(Oc2ccc3c(c2)OCCO3)CC1 [Compound 26, 7-(4-((2,3-dihydrobenzo[b][1,4]dioxin-6-yl)oxy)piperidin-1-yl)-8-methyl-4H-pyrimido[1,2-b]pyridazin-4-one]	84	7.18
[2H]C1(Oc2ccc3c(c2)OCCCO3)CCN(c2nn3c(=O)cc(C(F)F)nc3cc2C)CC1 [Compound 67, 2-(difluoromethyl)-7-(4-((3,4-dihydro-2H-benzo[b][1,4]dioxepin-7-yl)oxy)piperidin-1-yl-4-d)-8-methyl-4H-pyrimido[1,2-b]pyridazin-4-one]	109	7.77
Cc1cc2nccc(=O)n2nc1N1CC[C@@H](Oc2ccc3c(c2)OCCO3)C[C@H]1C [Compound 116, 7-((2R,4R)-4-((2,3-dihydrobenzo[b][1,4]dioxin-6-yl)oxy)-2-methylpiperidin-1-yl)-8-methyl-4H-pyrimido[1,2-b]pyridazin-4-one]	71	5.88
Cc1cc2nccc(=O)n2nc1N1CC[C@H](Oc2ccc3c(c2)OCCO3)C[C@H]1C (stereo in doubt) [Compound 107, 7-((2R,4S)-4-((2,3-dihydrobenzo[b][1,4]dioxin-6-yl)oxy)-2-methylpiperidin-1-yl)-8-methyl-4H-pyrimido[1,2-b]pyridazin-4-one]	55	
[2H]C1(Oc2ccc3c(c2)OC([2H])([2H])C([2H])([2H])O3)CCN(c2nn3c(=O)cc(C(F)F)nc3cc2C)CC1 [Compound 65, 2-(difluoromethyl)-7-(4-((2,3-dihydrobenzo[b][1,4]dioxin-6-yl-2,2,3,3-d4)oxy)piperidin-1-yl-4-d)-8-methyl-4H-pyrimido[1,2-b]pyridazin-4-one]	108	7.70
Cc1cc2nccc(=O)n2nc1N1CC[C@H](Oc2cc(F)c3c(c2)OCCO3)C[C@H]1C [Compound 131, 7-((2R,4S)-4-((8-fluoro-2,3-dihydrobenzo[b][1,4]dioxin-6-yl)oxy)-2-methylpiperidin-1-yl)-8-methyl-4H-pyrimido[1,2-b]pyridazin-4-one]	119	6.69
[2H]C1(Oc2ccc3c(c2)OC([2H])([2H])C([2H])([2H])O3)CCN(c2nn3c(=O)ccnc3c(COC)c2C)CC1 [Compound 103, 7-(4-((2,3-dihydrobenzo[b][1,4]dioxin-6-yl-2,2,3,3-d4)oxy)piperidin-1-yl-4-d)-9-(methoxymethyl)-8-methyl-4H-pyrimido[1,2-b]pyridazin-4-one]	78	6.34
[2H]C1(Oc2ccc3c(c2)OCCO3)CCN(c2nn3c(=O)ccnc3cc2C)CC1 [Compound 48, 7-(4-((2,3-dihydrobenzo[b][1,4]dioxin-6-yl)oxy)piperidin-1-yl-4-d)-8-methyl-4H-pyrimido[1,2-b]pyridazin-4-one]	91	7.34
[2H]C1([2H])Oc2ccc(O[C@@H]3CCN(c4nn5c(=O)cc(C)nc5cc4C)C[C@H]3F)cc2OC1([2H])[2H] [Compound 51, 7-((3R,4R)-4-((2,3-dihydrobenzo[b][1,4]dioxin-6-yl-2,2,3,3-d4)oxy)-3-fluoropiperidin-1-yl)-2,8-dimethyl-4H-pyrimido[1,2-b]pyridazin-4-one]	94	7.80
[2H]C1([2H])Oc2ccc(OC3CCN(c4cc(C)c5nccc(=O)n5n4)CC3)cc2OC1([2H])[2H] [Compound 22, 7-(4-((2,3-dihydrobenzo[b][1,4]dioxin-6-yl-2,2,3,3-d4)oxy)piperidin-1-yl)-9-methyl-4H-pyrimido[1,2-b]pyridazin-4-one]	36	5.74
[2H]C1(Oc2ccc3c(c2)OC([2H])([2H])C([2H])([2H])O3)CCN(c2nn3c(=O)cc(C(F)(F)F)nc3cc2C)CC1 [Compound 45, 7-(4-((2,3-dihydrobenzo[b][1,4]dioxin-6-yl-2,2,3,3-d4)oxy)piperidin-1-yl-4-d)-8-methyl-2-(trifluoromethyl)-4H-pyrimido[1,2-b]pyridazin-4-one]	77	7.59
